Tested on: tonic extensor seizure
Assay: Maximal Electroshock (MES) test, block of tonic extensor seizure, 45' post dose p.o.
Format: in vivo, mice
Design: key to MES test results (IA): IA: Inactive
Settings: for MES test results (IA) / ED50 / % block (MES test) / MES test results (activity in words): mice, 45' post dose; for ED50: Mus musculus, po, 0.75 h; for potency of 3-Me compound relative to 3-H compound (more potent than 3-H): MES ED50, Compd. No. 18 vs No. 17, No. 28 vs No. 27
Description: Activity in the MES test, indicating anticonvulsant activity, is characterized by a block of the tonic extensor seizure caused by applying an electric shock to mice via corneal electrodes as described in Swinyard et al., J. Pharmacol. Exp. Ther., 106, 319-330 (1952) and recorded as % block. A more recent description of current practice in anticonvulsant drug screening has also been reported by Swinyard et al., Epilepsia, 19, 409-428 (1978).

[1] = Table II, 200 mg/kg p.o., only dose tested

## Cc1ccc(NC(=O)N=C2NCCS2)cc1C [No. 22a, N-(3,4-dimethylphenyl)-N'-(2-thiazolidinylidene)urea]
Table II, p.o., dose not given
  MES test results (IA): IA

## O=C(N=C1NCCS1)Nc1ccccc1 [Table I No. 1, reference compound]
Table I
  ED50: > 200 mg/kg

## Cc1ccccc1NC(=O)N=C1NCCS1 [Table I No. 2, reference compound]
Table I
  ED50: 232 mg/kg
Table I, 200 mg/kg p.o.
  % block (MES test): 30%

## CN1CCSC1=NC(=O)Nc1ccccc1 [compound 1]
Table II, 100 mg/kg p.o., only dose tested
  MES test results (IA): IA

## Cc1ccccc1NC(=O)N=C1SCCN1C [compound 2]
Table II
  ED50: 4.8 mg/kg

## Cc1cccc(NC(=O)N=C2SCCN2C)c1 [compound 3]
Table II
  ED50: < 200 mg/kg
[1]
  % block (MES test): 70%

## Cc1ccc(NC(=O)N=C2SCCN2C)cc1 [compound 4]
Table II, 200 mg/kg p.o.
  MES test results (IA): IA

## CN1CCSC1=NC(=O)Nc1ccccc1Cl [compound 5]
Table II
  ED50: < 200 mg/kg
[1]
  % block (MES test): 70%
  MES test results (activity in words): Active

## CN1CCSC1=NC(=O)Nc1cccc(Cl)c1 [compound 6]
Table II, 200 mg/kg p.o.
  MES test results (IA): IA

## CN1CCSC1=NC(=O)Nc1ccc(Cl)cc1 [compound 7]
Table II, 200 mg/kg p.o.
  MES test results (IA): IA

## COc1ccccc1NC(=O)N=C1SCCN1C [compound 8]
Table II
  ED50: 235 mg/kg

## COc1cccc(NC(=O)N=C2SCCN2C)c1 [compound 9]
Table II
  ED50: < 200 mg/kg
[1]
  % block (MES test): 80%
  MES test results (activity in words): Active

## COc1ccc(NC(=O)N=C2SCCN2C)cc1 [compound 10]
Table II, 200 mg/kg p.o.
  MES test results (IA): IA

## CN1CCSC1=NC(=O)Nc1ccccc1C(F)(F)F [compound 11]
Table II
  ED50: 92.2 mg/kg

## CN1CCSC1=NC(=O)Nc1cccc(C(F)(F)F)c1 [compound 12]
Table II, 200 mg/kg p.o.
  MES test results (IA): IA

## CN1CCSC1=NC(=O)Nc1ccc(C(F)(F)F)cc1 [compound 13]
Table II, 200 mg/kg p.o.
  MES test results (IA): IA

## CN1CCSC1=NC(=O)Nc1ccc([N+](=O)[O-])cc1 [compound 14]
Table II, 200 mg/kg p.o.
  MES test results (IA): IA

## CCc1cccc(CC)c1NC(=O)N=C1SCCN1C [compound 15]
Table II
  ED50: 14.2 mg/kg

## CCc1cccc(C)c1NC(=O)N=C1SCCN1C [compound 16]
Table II
  ED50: 17.4 mg/kg

## Cc1cccc(C)c1NC(=O)N=C1NCCS1 [compound 17]
Table II
  ED50: 31 mg/kg

## Cc1cccc(C)c1NC(=O)N=C1SCCN1C [compound 18]
  potency of 3-Me compound relative to 3-H compound (more potent than 3-H): 2.6 ×
Table II
  ED50: 11.8 mg/kg

## Cc1ccc(C)c(NC(=O)N=C2SCCN2C)c1 [compound 19]
Table II
  ED50: 66.1 mg/kg

## Cc1ccc(NC(=O)N=C2SCCN2C)c(C)c1 [compound 20]
Table II
  ED50: 178 mg/kg

## Cc1cccc(NC(=O)N=C2SCCN2C)c1C [compound 21]
Table II
  ED50: 37.2 mg/kg

## Cc1ccc(NC(=O)N=C2SCCN2C)cc1C [compound 22]
Table II
  ED50: > 200 mg/kg
Table II, p.o., dose not given
  % block (MES test): 10%

## Cc1cc(C)cc(NC(=O)N=C2SCCN2C)c1 [compound 23]
Table II, 200 mg/kg p.o.
  MES test results (IA): IA

## CN1CCSC1=NC(=O)Nc1cc(C(F)(F)F)cc(C(F)(F)F)c1 [compound 24]
Table II, 200 mg/kg p.o.
  MES test results (IA): IA

## Cc1cc(C)c(NC(=O)N=C2SCCN2C)c(C)c1 [compound 25]
Table II
  ED50: 66.5 mg/kg

## Cc1cccc(Cl)c1NC(=O)N=C1SCCN1C [compound 26]
Table II
  ED50: 15.3 mg/kg

## O=C(N=C1NCCS1)Nc1c(Cl)cccc1Cl [compound 27]
Table II
  ED50: 70.7 mg/kg

## CN1CCSC1=NC(=O)Nc1c(Cl)cccc1Cl [compound 28]
  potency of 3-Me compound relative to 3-H compound (more potent than 3-H): 4 ×
Table II
  ED50: 17.4 mg/kg

## CN1CCSC1=NC(=O)Nc1c(F)cccc1F [compound 29]
Table II
  ED50: 22.7 mg/kg

## CN1CCSC1=NC(=O)Nc1c(Br)cccc1Br [compound 30]
Table II
  ED50: 69.6 mg/kg

## CN1CCSC1=NC(=O)Nc1c(Br)cc(F)cc1Br [compound 31]
Table II
  ED50: < 200 mg/kg
[1]
  % block (MES test): 80%
  MES test results (activity in words): Active

## CN1CCSC1=NC(=O)Nc1c(Cl)cc(Cl)cc1Cl [compound 32]
Table II, 200 mg/kg p.o.
  MES test results (IA): IA

## COc1cccc(OC)c1NC(=O)N=C1SCCN1C [compound 33]
Table II
  ED50: 41.2 mg/kg

## COc1ccc(NC(=O)N=C2SCCN2C)cc1OC [compound 34]
Table II
  ED50: > 200 mg/kg
[1]
  % block (MES test): 20%
